Reference: the NIST ThermoML archive (doi:10.1016/j.jct.2012.12.018)

Assay: xn = mol fraction of the nth substance listed
Conditions: Gas, Buoyancy - hydrostatic balance with magnetic suspension - one sinker, x2 = 0.8977

N#N [nitrogen] + C
Conditions | mass density [kg/m3]
170.59 K, 761.2 kPa | 10.0103
170.59 K, 1037.8 kPa | 14.0966
170.59 K, 1287.8 kPa | 18.0625
170.6 K, 455.1 kPa | 5.7907
187.47 K, 422.8 kPa | 4.8286
187.47 K, 722.4 kPa | 8.4419
187.47 K, 1064.8 kPa | 12.7954
187.47 K, 1349.6 kPa | 16.6251
217.54 K, 441.1 kPa | 4.2954
217.54 K, 1298.9 kPa | 13.1778
217.54 K, 1475.3 kPa | 15.0994
217.55 K, 724.1 kPa | 7.1436
217.55 K, 1017.9 kPa | 10.1853
240.48 K, 975.3 kPa | 8.695
240.48 K, 1256.7 kPa | 11.3113
240.48 K, 1594.5 kPa | 14.5212
240.49 K, 438.2 kPa | 3.8367
240.49 K, 715.8 kPa | 6.3263
261 K, 145.7 kPa | 1.1633
261 K, 436.6 kPa | 3.5148
261 K, 729 kPa | 5.9093
261 K, 1021.7 kPa | 8.3427
270.05 K, 133.3 kPa | 1.0285
270.05 K, 424.6 kPa | 3.2976
270.05 K, 731.4 kPa | 5.7195
270.05 K, 1025.7 kPa | 8.0721
270.05 K, 1195.4 kPa | 9.445
